Reference: patent US20250034264A1, “REGULATING T CELL IMMUNE RESPONSE THROUGH IGF-I RECEPTOR (IGF-1R)” (The Regents of the University of Michigan, priority 2021, published 2025)

Tests used:
Assay type in all cases: cell-based, human
fibrocytes [1] = assay: AIRE and thyroid autoantigen (Tg, TPO, NIS) mRNA expression; conditions: 50 μg/mL 7-9 days; bTSH 5 mIU/mL 6 h; vs isotype control mAb
Description: FIGS. 9A-9D are graphs showing the effect of teprotumumab on bovine thyrotropin or thyroid-stimulating hormone (bTSH) induced thyroid specific genes thyroglobulin (Tg), sodium iodide symporter (NIS), thyroperoxidase (TPO), and autoimmune regulator protein (AIRE) in fibrocytes. Confluent fibrocyte cultures were treated with or without teprotumumab (50 μg/ml) and human Isotype IgG for 7-9 d, followed by bTSH (5 mIU/mL) for 6 h. Monolayers were washed with PBS and RNA was extracted and reverse transcribed. Harvested cDNA was subjected to quantitative real-time PCR for AIRE (FIG. 9A), Tg (FIG. 9B), TPO (FIG. 9C), and NIS (FIG. 9D) mRNA levels. Values were normalized to their respective GAPDH levels and are expressed as the mean f SD of three independent determinations. Experiments were repeated three times. *, P<0.05; **, p<0.01.
(§1) Real-time PCR Confluent fibrocyte and GD-OF cultures were incubated with bTSH (5 mIU/mL), teprotumumab (50 μg/mL) or linsitinib (1 μM) for the time intervals indicated, washed with PBS and RNA was extracted with the Aurum Total RNA Mini Kit (cat. #732-6820, Bio-Rad, Hercules, CA). Cellular RNA (2 μg) was reverse transcribed using QuantiTect Reverse Transcription kit (cat. #205314, Qiagen (Germantown, MD) and real-time PCR was performed using an Applied Biosystems instrument with QuantiTect SYBR Green PCR kit (cat. no. 204143; Qiagen, Frederick, MD). Primer sequences were as follows.

fibrocytes [2] = assay: mRNA stability with DRB; conditions: 50 μg/mL, up to 12 hrs
Description: FIGS. 5A-5C show the effects of teprotumumab on basal and bTSH-induced gene promoter activities in GD-OF compared to fibrocytes, gene transcription and mRNA stabilities of MHC II, CD80, CD86, PD-L1 in fibrocytes. Confluent GD-OF and fibrocyte monolayers were treated with human Isotype IgG (5 μg/ml) or teprotumumab (50 μg/mL) for 3 d and transfected with a target gene promoter fragment (MHC-2, CD80, CD86, PD-L1, or negative control clone PG04). Following a 3-4 d incubation, they were treated without or with bTSH (5 mU/mL) for 2 h. Monolayers were rinsed, processed, and analyzed using the Secrete-Pair Dual Luminescence Assay Kit for promoter activity according to manufacturer's instructions (FIG. 5A). Values were normalized to internal controls. Fibrocyte monolayers were cross-linked with 16% formaldehyde isolated chromatin fragment and immunoprecipitated with anti-human HLA-DPB1, anti-CD80, anti-CD86, or anti-PD-L1 using the Pierce™ Agarose Chip Kit. Isolated DNA was subjected to RT-PCR using EpiTect ChIP qPCR Primer Assay (Qiagen) for each target (FIG. 5B). Each datum point represents values from three independent determinations from one of three experiments performed. *, p<0.05; ** p<0.01; and ***p<0.001. Fibrocyte cultures were pretreated with bTSH for 6 h. […] RNA was extracted, reverse transcribed, and subjected to real-time quantitative PCR for each target (FIG. 5C). […]

fibrocytes [3] = assay: IL-23p19 and IL-12p35 mRNA expression, real-time PCR; conditions: teprotumumab 50 μg/ml or linsitinib 1 μM, 7-9 d
Description: FIGS. 10A-10F are graphs showing the divergent effect of teprotumumab on bTSH induced IL-23p19 and IL-12p35 expression on fibrocytes and GD-OF. Rinsed fibrocyte and GD-OF monolayers were incubated with or without 50 μg/ml teprotumumab (FIGS. 10A and 10B) or 1 μM linsitinib (FIGS. 10C and 10D) and human Isotype IgG for 7-9 d, and bTSH (5 mIU/mL) was added for 6 h. Harvested RNA was reverse transcribed and isolated cDNA was subjected to quantitative real-time PCR for IL-23p19 and IL-12p35 mRNA levels. Values were normalized to their respective GAPDH levels and are expressed as the mean±SD of three independent determinations. Experiments were repeated three times. FIGS. 10E and 10F are graphs showing the levels of IL-23 protein when rinsed fibrocyte and GD-OF monolayers were incubated with or without 50 μg/ml teprotumumab. **, p<0.01; ***. P<0.001.
as §1

Substance: teprotumumab
- AIRE basal expression and induction by bTSH (fibrocytes [1]): inhibited
- NIS basal expression and induction by bTSH (fibrocytes [1]): inhibited
- TPO basal expression and induction by bTSH (fibrocytes [1]): inhibited
- Tg basal expression and induction by bTSH (fibrocytes [1]): inhibited
- stabilities of mRNA encoding MHC II, CD80, CD86, PD-L1 (fibrocytes [2]): accelerated their decline
- IL-12p35 expression, basal and induction by bTSH (fibrocytes [3]): enhances
- IL-23p19 expression, basal and induction by bTSH (fibrocytes [3]): inhibited
